Test results published in US4345938A, “Herbicidal 2-haloacetanilides” (Monsanto Company, priority 1980, dated 1982).
Like-named read-outs stand apart in the source and are kept apart here.

Assays:
Type in all cases: in vivo
Monochoria vaginalis [1] = test: Field transplant rice test, applied 0 DAT, MV; details: Pontederia vaginalis, 0 h, read-out: Percent Inhibition, MV; for inhibition at 375 g/ha: 0.375 Kg/Ha; for inhibition at 750 g/ha: 0.75 Kg/Ha; for inhibition at 1500 g/ha: 1.5 Kg/Ha; for inhibition at 3000 g/ha: 3.0 Kg/Ha
Protocol: (§1) The test data in Table III for all compounds was obtained under identical test conditions. The weeds used in the tests herein have the following abbreviations in the tables: Echinochloa crus-galli (EC), Monochloria vaginalis (MV), Cyperus Serotinus (CS), Eleocharis Kuroguwai (EK) and Sagittaria trifolia (ST).
(§2) In further comparative tests, a preferred compound of this invention (Example 1) was tested in the field with prior art Compounds A-D. These tests were conducted under conditions reflecting herbicide application times generally favorable to all herbicides in the test. The timing of application of herbicides to transplant rice is very important, whether, as in some instances, prior to transplanting the rice; in other instances, at the time of transplanting or else after transplanting. Application times are conventionally referred to as "days before transplant" (DBT) or "days after transplant" ("DAT"). The field test data in Table IV was obtained from a test in which the herbicides were applied at the time of transplant, i.e., "0 DAT", with observations being made weekly up to six weeks after transplant ("WAT") beginning at two weeks after transplant; for illustrative and representative purposes, only the early, middle and late period observations, i.e., 2 WAT, 4 WAT and 6 WAT, are shown in Table IV. The data in Table IV is for rates of application common to all herbicides in the test, i.e., from 3.0 kg/ha (2.67 lb/A) down to 0.375 kg/ha (0.34 lb/A). All herbicides were applied at their actual or expected use rates, i.e., as granules containing 2.5% by weight herbicide for the compound of Example 1, Compounds B, C and D and 5.0% by weight for Compound A.

Rice = test: Field transplant rice test, applied 0 DAT, rice injury; details: Oryza sativa, 0 h, read-out: Percent Inhibition, Rice; for inhibition at 375 g/ha: 0.375 Kg/Ha; for inhibition at 750 g/ha: 0.75 Kg/Ha; for inhibition at 1500 g/ha: 1.5 Kg/Ha; for inhibition at 3000 g/ha: 3.0 Kg/Ha
Protocol: as §2

Eleocharis kuroguwai [2] = test: Field transplant rice test, applied 9 DAT, EK; details: for inhibition at 375 g/ha / inhibition at 750 g/ha / inhibition at 1500 g/ha / inhibition at 3000 g/ha: Eleocharis kuroguwai, 216 h, read-out: Percent Inhibition, EK; for inhibition at 375 g/ha: 0.375 Kg/Ha; for inhibition at 750 g/ha: 0.75 Kg/Ha; for inhibition at 1500 g/ha: 1.5 Kg/Ha; for inhibition at 3000 g/ha: 3.0 Kg/Ha
Source text: In the discussion of data below, occasional reference is made to herbicide application rates symbolized as "GR15 " and "GR85 "; these rates are given in kilograms per hectare (kg/ha) which are convertible into pounds per acre (lbs/A) by dividing the kg/ha rate by 1.12.
A further guide to the effectiveness of a chemical as a selective herbicide is the "selectivity factor" ("SF") for a herbicide in given crops and weeds. The selectivity factor is a measure of the relative degree of crop safety and weed injury and is expressed in terms of the GR15 /GR85 ratio, i.e., the GR15 rate for the crop divided by the GR85 rate for the weed, both rates in kg/ha (lb/A.)
as §1, §2
In Table V are presented field data showing the relative performance of the compound of Example 1 and Compounds A-D applied 9 DAT, with observations being made weekly from 3 WAT to 7 WAT; again, for illustrative and representative purposes, only the early, middle and late period observations are reported in Table V, the herbicide rates and concentrations of active ingredients the same as is shown in Table IV.

Cyperus serotinus = test: Field transplant rice test, applied 0 DAT, CS; details: 0 h, read-out: Percent Inhibition, CS; for inhibition at 375 g/ha: 0.375 Kg/Ha; for inhibition at 750 g/ha: 0.75 Kg/Ha; for inhibition at 1500 g/ha: 1.5 Kg/Ha; for inhibition at 3000 g/ha: 3.0 Kg/Ha
Protocol: as §1, §2

Eleocharis kuroguwai [3] = test: Field transplant rice test, applied 0 DAT, EK; details: 0 h, read-out: Percent Inhibition, EK; for inhibition at 375 g/ha: 0.375 Kg/Ha; for inhibition at 750 g/ha: 0.75 Kg/Ha; for inhibition at 1500 g/ha: 1.5 Kg/Ha; for inhibition at 3000 g/ha: 3.0 Kg/Ha
Protocol: as §1, §2

Monochoria vaginalis [4] = test: Greenhouse transplant rice test, MV; details: Pontederia vaginalis, about 3 WAT, read-out: Percent Inhibition, MV
Source text: The test procedure used in this greenhouse test is as follows: Ray silt loam top soil containing about 0.05% by weight of krillium and sifted through a […] screen is fumigated about 5-10 days prior to use. Pots are then filled with said Ray silt loam soil to a level to allow for a 1 in. (2.54 cm) flooding depth. Rice plants (Bluebelle) of 2 to 3 weeks age are transplanted to the pots and bulbs or seeds of the test weeds also planted in the pots. The pots are then flooded and the test chemical applied to the surface of the flood water. The flood water is reduced to allow for germination of the Echinochloa crus-galli (barnyardgrass) seed and subsequently reflooded and maintained in that condition. Observations of percent inhibition using a scale of 0-100% are made about 3 weeks after transplant (WAT).
as §1

SMILES: CCCOCCN(C(=O)CCl)c1c(CC)cccc1CC [Compound D, 2',6'-diethyl-N-(n-propoxyethyl)-2-chloroacetanilide]
- inhibition at 375 g/ha (Monochoria vaginalis [1]; 2 WAT): 90%
- inhibition at 375 g/ha (Monochoria vaginalis [1]; 4 WAT): 95%
- inhibition at 375 g/ha (Monochoria vaginalis [1]; 6 WAT): 83%
- inhibition at 750 g/ha (Monochoria vaginalis [1]; 2 WAT): 100%
- inhibition at 750 g/ha (Monochoria vaginalis [1]; 4 WAT): 99%
- inhibition at 750 g/ha (Monochoria vaginalis [1]; 6 WAT): 100%
- inhibition at 1500 g/ha (Monochoria vaginalis [1]; 2 WAT): 98%
- inhibition at 1500 g/ha (Monochoria vaginalis [1]; 4 WAT): 100%
- inhibition at 1500 g/ha (Monochoria vaginalis [1]; 6 WAT): 100%
- inhibition at 3000 g/ha (Monochoria vaginalis [1]; 2 WAT): 100%
- inhibition at 3000 g/ha (Monochoria vaginalis [1]; 4 WAT): 98%
- inhibition at 3000 g/ha (Monochoria vaginalis [1]; 6 WAT): 98%
- inhibition at 375 g/ha (Rice; 2 WAT): 0%
- inhibition at 375 g/ha (Rice; 4 WAT): 3%
- inhibition at 375 g/ha (Rice; 6 WAT): 2%
- inhibition at 750 g/ha (Rice; 2 WAT): 2%
- inhibition at 750 g/ha (Rice; 4 WAT): 2%
- inhibition at 750 g/ha (Rice; 6 WAT): 0%
- inhibition at 1500 g/ha (Rice; 2 WAT): 10%
- inhibition at 1500 g/ha (Rice; 4 WAT): 8%
- inhibition at 1500 g/ha (Rice; 6 WAT): 7%
- inhibition at 3000 g/ha (Rice; 2 WAT): 8%
- inhibition at 3000 g/ha (Rice; 4 WAT): 7%
- inhibition at 3000 g/ha (Rice; 6 WAT): 5%
- selectivity factor (GR15/GR85), EK in transplant rice (Eleocharis kuroguwai [2]; 3 WAT): about 1
- inhibition at 375 g/ha (Eleocharis kuroguwai [2]; 3 WAT): 50%
- inhibition at 375 g/ha (Eleocharis kuroguwai [2]; 5 WAT): 23%
- inhibition at 375 g/ha (Eleocharis kuroguwai [2]; 7 WAT): 0%
- inhibition at 750 g/ha (Eleocharis kuroguwai [2]; 3 WAT): 45%
- inhibition at 750 g/ha (Eleocharis kuroguwai [2]; 5 WAT): 20%
- inhibition at 750 g/ha (Eleocharis kuroguwai [2]; 7 WAT): 0%
- inhibition at 1500 g/ha (Eleocharis kuroguwai [2]; 3 WAT): 52%
- inhibition at 1500 g/ha (Eleocharis kuroguwai [2]; 5 WAT): 30%
- inhibition at 1500 g/ha (Eleocharis kuroguwai [2]; 7 WAT): 0%
- inhibition at 3000 g/ha (Eleocharis kuroguwai [2]; 3 WAT): 84%
- inhibition at 3000 g/ha (Eleocharis kuroguwai [2]; 5 WAT): 78%
- inhibition at 3000 g/ha (Eleocharis kuroguwai [2]; 7 WAT): 45%
- inhibition at 375 g/ha (Cyperus serotinus; 2 WAT): 82%
- inhibition at 375 g/ha (Cyperus serotinus; 4 WAT): 65%
- inhibition at 375 g/ha (Cyperus serotinus; 6 WAT): 33%
- inhibition at 750 g/ha (Cyperus serotinus; 2 WAT): 73%
- inhibition at 750 g/ha (Cyperus serotinus; 4 WAT): 77%
- inhibition at 750 g/ha (Cyperus serotinus; 6 WAT): 70%
- inhibition at 1500 g/ha (Cyperus serotinus; 2 WAT): 92%
- inhibition at 1500 g/ha (Cyperus serotinus; 4 WAT): 93%
- inhibition at 1500 g/ha (Cyperus serotinus; 6 WAT): 93%
- inhibition at 3000 g/ha (Cyperus serotinus; 2 WAT): 67%
- inhibition at 3000 g/ha (Cyperus serotinus; 4 WAT): 65%
- inhibition at 3000 g/ha (Cyperus serotinus; 6 WAT): 60%
- inhibition at 375 g/ha (Eleocharis kuroguwai [3]; 2 WAT): 62%
- inhibition at 375 g/ha (Eleocharis kuroguwai [3]; 4 WAT): 20%
- inhibition at 375 g/ha (Eleocharis kuroguwai [3]; 6 WAT): 0%
- inhibition at 750 g/ha (Eleocharis kuroguwai [3]; 2 WAT): 63%
- inhibition at 750 g/ha (Eleocharis kuroguwai [3]; 4 WAT): 40%
- inhibition at 750 g/ha (Eleocharis kuroguwai [3]; 6 WAT): 10%
- inhibition at 1500 g/ha (Eleocharis kuroguwai [3]; 2 WAT): 70%
- inhibition at 1500 g/ha (Eleocharis kuroguwai [3]; 4 WAT): 67%
- inhibition at 1500 g/ha (Eleocharis kuroguwai [3]; 6 WAT): 47%
- inhibition at 3000 g/ha (Eleocharis kuroguwai [3]; 2 WAT): 85%
- inhibition at 3000 g/ha (Eleocharis kuroguwai [3]; 4 WAT): 75%
- inhibition at 3000 g/ha (Eleocharis kuroguwai [3]; 6 WAT): 22%

SMILES: CCCCOc1cccc(CC)c1N(CC)C(=O)CCl [Example 2, N-ethyl-2'-n-butoxy-6'-ethyl-2-chloroacetanilide]
- inhibition at 280 g/ha (Monochoria vaginalis [4]; 0.28 Kg/Ha): 100%
- inhibition at 560 g/ha (Monochoria vaginalis [4]; 0.56 Kg/Ha): 100%
- inhibition at 1120 g/ha (Monochoria vaginalis [4]; 1.12 Kg/Ha): 100%
- inhibition at 2240 g/ha (Monochoria vaginalis [4]; 2.24 Kg/Ha): 100%
